In patent US10010589B2, “Modified therapeutic agents, stapled peptide lipid conjugates, and compositions thereof” (priority 2013, dated 2018):
*1 amine or outer side, *2 acyl side, *3 side chain or, on linkers, in order; H or OH if unused. Where a SMILES comes first, the peptide text is derived from it. Bridges are numbered along the chain shown (N, C = ends). CH2CONH(CH2)4NHCOCH2 = O=C(C[*:1])NCCCCNC(=O)C[*:2]

Target: T1, human Glucagon-like peptide 2 receptor (GLP-2R) (Homo sapiens, UniProt O95838)
T1 construct: expressed in transfected cells
T1 sequence (O95838 1-553): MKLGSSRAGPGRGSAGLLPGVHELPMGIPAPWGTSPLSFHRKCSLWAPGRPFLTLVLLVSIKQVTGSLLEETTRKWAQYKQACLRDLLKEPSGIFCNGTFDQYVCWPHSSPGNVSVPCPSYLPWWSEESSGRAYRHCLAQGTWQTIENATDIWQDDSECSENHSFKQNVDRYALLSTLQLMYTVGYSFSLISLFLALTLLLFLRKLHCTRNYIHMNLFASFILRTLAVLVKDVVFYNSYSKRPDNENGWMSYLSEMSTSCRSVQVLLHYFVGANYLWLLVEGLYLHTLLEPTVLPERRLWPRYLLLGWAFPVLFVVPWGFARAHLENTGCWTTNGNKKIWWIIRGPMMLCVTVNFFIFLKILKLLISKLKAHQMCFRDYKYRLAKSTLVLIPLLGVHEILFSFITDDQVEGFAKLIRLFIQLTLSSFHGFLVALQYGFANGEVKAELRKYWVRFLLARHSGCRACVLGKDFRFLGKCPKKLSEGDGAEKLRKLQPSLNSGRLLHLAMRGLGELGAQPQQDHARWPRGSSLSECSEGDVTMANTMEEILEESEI
Experiment: GLP-2R CRE luciferase assay (receptor-mediated cAMP synthesis)
Format: cell-based
Method: CREB responsive luciferase stable HEK 293 cell line overexpressing human glucagon receptor (GCGR), glucagon-like peptide 1 receptor (GLP-1R), Glucose-dependent insulinotropic polypeptide receptor (GIPR), or Glucagon-like peptide 2 receptor (GLP-2R) was generated as follows.
HEK293 cells were infected with lent virus encoding firefly luciferase gene under the control of CRE promoter, as described in the manual (Qiagen, Netherlands) and then were selected using 1 μg/mL puromycin (Life technologies, Carlsbad) for 1 week. The survived cells were named as CRE-HEK293, expanded and then transfected with a G418 selective mammalian expression plasmid encoding human GCGR, GLP-1R, GIPR or GLP-2R. In brief, GCGR, GLP-1R, GIPR, or GLP-2R plasmid was transfected into CRE-HEK293 cells using Lipofectamine 2000 and selected with 400 μg/mL geneticin (Life technologies, Carlsbad, Calif.). […]
HEK293-GCGR-CRE, HEK293-GLP-1R-CRE, HEK293-GIPR-CRE, and HEK293-GLP-2R-CRE cells were seeded in a white 384-well plate at a density of 5,000 cells per well and cultured for 24 hours. […] On the next day, 10 μl of Bright-Glo reagent (Promega, Madison, Wis.) were added into each well and firefly luminescence was determined using an Envision multilabel plate reader (PerkinElmer, Waltham, Mass.). EC50 of each peptide was calculated using GraphPad Prism 6 software (GraphPad, San Diego, Calif.).

## CC[C@H](C)[C@@H]1NC(=O)[C@H](Cc2ccccc2)NC(=O)[C@H](CC(=O)O)NC(=O)[C@H](CCCNC(=N)N)NC(=O)[C@H](C)NC(=O)[C@H](C)NC(=O)[C@H](CC(C)C)NC(=O)[C@@H](NC(=O)[C@H](CC(=O)O)NC(=O)[C@H](CC(C)C)NC(=O)[C@@H](NC(=O)[C@@H](NC(=O)[C@H](CC(N)=O)NC(=O)[C@H](CCSC)NC(=O)[C@H](CCC(=O)O)NC(=O)[C@H](CC(=O)O)NC(=O)[C@H](CO)NC(=O)[C@H](Cc2ccccc2)NC(=O)[C@H](CO)NC(=O)CNC(=O)[C@H](CC(=O)O)NC(=O)CNC(=O)[C@@H](N)Cc2c[nH]cn2)[C@@H](C)O)[C@@H](C)CC)CSCC(=O)NCCCCNC(=O)CSC[C@@H](C(=O)N[C@@H](Cc2c[nH]c3ccccc23)C(=O)N[C@@H](CC(C)C)C(=O)N[C@H](C(=O)N[C@@H](CCC(N)=O)C(=O)N[C@H](C(=O)N[C@@H](CCCCN)C(=O)N[C@H](C(=O)N[C@H](C(=O)N[C@@H](CC(=O)O)C(N)=O)[C@@H](C)O)[C@@H](C)CC)[C@@H](C)O)[C@@H](C)CC)NC1=O [mTA52] (H-HGDGSFSDEMNTILDCLAARDFICWLIQTKITD-NH2; linker 16-24 via CH2CONH(CH2)4NHCOCH2)
  EC50: 5.6 nM
